{
  "source": "patent US7491794B2",
  "about": "“Macrocyclic compounds as inhibitors of viral replication” (Intermune, Inc., priority 2003, dated 2009)",
  "key": {"[1]": {"experiment": "Dog hepatocyte incubation assay (stability in vitro)", "type": "in vitro ADME", "conditions": "dog hepatocytes"}, "[2]": {"experiment": "Human hepatocyte incubation assay (stability in vitro)", "type": "in vitro ADME", "conditions": "human hepatocytes"}, "[3]": {"experiment": "Rat hepatocyte incubation assay (stability in vitro)", "type": "in vitro ADME", "conditions": "rat hepatocytes"}, "[4]": {"tested_on": "panel of other serine proteases", "experiment": "Selectivity against a panel of other serine proteases", "type": "biochemical"}, "hERG channel": {"target": "hERG channel (Homo sapiens, UniProt Q12809)", "sequence (Q12809 whole entry)": "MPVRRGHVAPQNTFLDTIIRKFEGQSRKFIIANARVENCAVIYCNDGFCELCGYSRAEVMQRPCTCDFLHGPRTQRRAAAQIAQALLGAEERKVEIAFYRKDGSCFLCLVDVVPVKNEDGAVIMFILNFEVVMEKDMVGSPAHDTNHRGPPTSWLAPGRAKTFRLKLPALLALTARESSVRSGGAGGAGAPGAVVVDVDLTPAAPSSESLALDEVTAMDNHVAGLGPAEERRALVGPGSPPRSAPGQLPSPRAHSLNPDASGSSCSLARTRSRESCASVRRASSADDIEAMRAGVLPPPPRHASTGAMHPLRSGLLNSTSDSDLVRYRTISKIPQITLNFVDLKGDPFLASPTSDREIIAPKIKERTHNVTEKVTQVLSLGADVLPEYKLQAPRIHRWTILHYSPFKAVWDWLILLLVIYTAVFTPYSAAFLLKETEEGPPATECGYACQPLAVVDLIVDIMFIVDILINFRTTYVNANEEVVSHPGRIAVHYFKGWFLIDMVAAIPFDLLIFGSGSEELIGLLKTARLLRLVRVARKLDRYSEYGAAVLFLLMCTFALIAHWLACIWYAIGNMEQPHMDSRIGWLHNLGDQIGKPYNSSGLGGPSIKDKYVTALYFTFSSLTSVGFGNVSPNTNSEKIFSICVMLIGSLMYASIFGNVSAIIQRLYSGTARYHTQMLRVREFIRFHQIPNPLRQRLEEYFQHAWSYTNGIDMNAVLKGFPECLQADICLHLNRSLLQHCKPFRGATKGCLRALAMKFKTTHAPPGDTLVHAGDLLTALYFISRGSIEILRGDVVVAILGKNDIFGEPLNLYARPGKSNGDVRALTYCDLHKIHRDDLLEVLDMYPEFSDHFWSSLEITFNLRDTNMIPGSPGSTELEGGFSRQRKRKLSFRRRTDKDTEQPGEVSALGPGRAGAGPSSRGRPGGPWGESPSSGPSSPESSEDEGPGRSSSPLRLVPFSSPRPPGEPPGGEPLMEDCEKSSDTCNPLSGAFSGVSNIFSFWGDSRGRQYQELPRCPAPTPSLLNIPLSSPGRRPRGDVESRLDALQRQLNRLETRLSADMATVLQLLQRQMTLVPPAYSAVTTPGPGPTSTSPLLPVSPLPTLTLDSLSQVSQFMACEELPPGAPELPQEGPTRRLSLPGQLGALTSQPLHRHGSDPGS", "experiment": "Inhibition of hERG channel activity", "conditions": "highest concentrations tested (10 μM)"}, "Cytochrome P450 isoforms": {"tested_on": "Cytochrome P450 isoforms", "experiment": "Inhibition of Cytochrome P450 isoforms", "type": "in vitro ADME", "conditions": "highest concentrations tested (10 μM)"}, "[5]": {"tested_on": "HCV sub-genomic replicon, GS4.3", "experiment": "Quantitation by ELISA of NPTII in the HCV sub-genomic replicon, GS4.3, Section B", "type": "cell-based", "conditions": "Hepatitis C virus; read-out: replicon EC50 value", "method_in_brief": "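NPTII marker protein in lysates was quantified by ELISA read at 450 nm after 72 h inhibitor exposure (3-fold series, final DMSO 1%, G418-free medium) of HuH-7 cells stably harbouring the subgenomic HCV replicon. Values relative to DMSO-treated controls; 4-parameter curves gave EC50.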"}, "[6]": {"experiment": "Toxicological assessment in rats, up to 30 mg/kg orally BID for seven days", "conditions": "Rattus sp."}, "[7]": {"conditions": "in vivo, po", "experimental": "Compounds were initially synthesized and tested for potency (IC50) in a fluorogenic NS3/4 protease assay and cell-based HCV replicon system as described in Example 8 above. […] These leads were then further optimized for drug-like physical properties and administered in oral doses in Rattus sp. to assess liver, heart and plasma concentrations.\nCompounds were tested for liver clearance over time following a single 3 mg/kg oral dose in rats.\nCompounds were initially synthesized and tested for potency (IC50) in a fluorogenic NS3/4 protease assay and cell-based HCV replicon system as described above. […] These leads were then further optimized for drug-like physical properties and administered in oral doses in Rattus sp. to assess liver, heart and plasma concentrations."}, "[8]": {"conditions": "from 1R-{[1-(2S-tert-Butoxycarbonylamino-non-8-enoyl)-4R-hydroxy-pyrrolidine-2S-carbonyl]-amino}-2S-vinyl-cyclopropanecarboxylic acid ethyl ester; rcm bond; 15-membered ring; Hoveyda catalyst (0.25 equiv); DCE; 10.0 mM; 50.0 °C"}, "[9]": {"conditions": "from C=CCCCCC[C@H](NC(=O)OC(C)(C)C)C(=O)N1C[C@H](O)C[C@H]1C(=O)N[C@]1(C(=O)OCC)C[C@H]1C=C; rcm bond; Hoveyda catalyst; DCE; 10.0 mM; 50.0 °C; 16.0 h"}, "NS3-NS4 protease": {"target": "T1, NS3-NS4 protease (Hepatitis C virus genotype 1a, UniProt P27958)", "T1 construct": "Recombinant E. coli or Baculovirus full-length NS3 was diluted to 3.33 μM with assay buffer; made in house; host or cells: E. coli or baculovirus (BV) system", "T1 sequence (P27958 1027-1657)": "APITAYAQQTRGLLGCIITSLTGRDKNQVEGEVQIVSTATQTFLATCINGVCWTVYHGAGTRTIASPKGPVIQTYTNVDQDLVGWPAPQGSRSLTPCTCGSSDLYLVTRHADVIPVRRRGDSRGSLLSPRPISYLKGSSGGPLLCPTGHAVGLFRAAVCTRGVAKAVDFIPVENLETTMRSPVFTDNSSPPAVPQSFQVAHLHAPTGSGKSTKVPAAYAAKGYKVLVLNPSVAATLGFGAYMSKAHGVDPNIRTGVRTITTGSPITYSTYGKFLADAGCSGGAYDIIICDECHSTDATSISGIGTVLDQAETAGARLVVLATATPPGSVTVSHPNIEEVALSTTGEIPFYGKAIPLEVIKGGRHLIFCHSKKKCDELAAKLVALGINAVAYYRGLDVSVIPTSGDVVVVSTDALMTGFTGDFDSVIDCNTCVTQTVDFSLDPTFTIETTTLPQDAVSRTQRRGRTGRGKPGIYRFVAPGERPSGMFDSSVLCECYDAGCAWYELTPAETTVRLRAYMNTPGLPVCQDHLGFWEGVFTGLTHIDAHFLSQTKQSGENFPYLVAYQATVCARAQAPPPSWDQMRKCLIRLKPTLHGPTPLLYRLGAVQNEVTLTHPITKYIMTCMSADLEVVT", "experiment": "NS3-NS4 protease assay / NS3 inhibition assay, Section C", "type": "biochemical", "conditions": "read-out: NS3-NS4 IC50", "method_in_brief": "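Full-length NS3 (E. coli, 2 nM, or Baculovirus, 3 nM, in assay) precomplexed with excess NS4A-2 peptide, pre-incubated with compound 10 minutes at room temperature, then RETS1 substrate added. Fluorescence (ex 335/em 495 nm) read kinetically over 30 minutes; IC50s from four-parameter fit converted to Ki via Ki=IC50/(1+[S]/Km).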"}, "[10]": {"tested_on": "HCV sub-genomic replicon, GS4.3", "experiment": "Quantitation by ELISA of NPTII in the HCV sub-genomic replicon, GS4.3, Section C", "type": "cell-based", "conditions": "Hepatitis C virus; GS4.3 cells, 72 h incubation; read-out: EC50"}},
  "data": [
    {"smiles": "CC(C)(C)OC(=O)N[C@H]1CCCCC/C=C\\[C@@H]2C[C@@]2(C(=O)NS(=O)(=O)C2CC2)NC(=O)[C@@H]2C[C@@H](OC(=O)N3CCc4ccccc4C3)CN2C1=O", "note": "[AR261408]", "values": [
      {"measurement": "stability in vitro in dog hepatocyte incubation assay", "setting": "[1]", "value": "exhibited stability"},
      {"measurement": "stability in vitro in human hepatocyte incubation assay", "setting": "[2]", "value": "exhibited stability"},
      {"measurement": "stability in vitro in rat hepatocyte incubation assay", "setting": "[3]", "value": "exhibited stability"},
      {"measurement": "selectivity against a panel of other serine proteases", "setting": "[4]", "value": "high degree of selectivity"},
      {"measurement": "inhibition of hERG channel activity", "setting": "hERG channel", "value": "no significant inhibition"},
      {"measurement": "inhibition of Cytochrome P450 isoforms", "setting": "Cytochrome P450 isoforms", "value": "no significant inhibition"},
      {"measurement": "EC50", "setting": "[5]", "value": "~2", "unit": "nM"}
    ]},
    {"smiles": "CC(C)(C)OC(=O)N[C@H]1CCCCC/C=C\\[C@@H]2C[C@@]2(C(=O)NS(=O)(=O)C2CC2)NC(=O)[C@@H]2C[C@@H](OC(=O)N3Cc4cccc(F)c4C3)CN2C1=O", "note": "[AR334191]", "values": [
      {"measurement": "stability in vitro in dog hepatocyte incubation assay", "setting": "[1]", "value": "exhibited stability"},
      {"measurement": "stability in vitro in human hepatocyte incubation assay", "setting": "[2]", "value": "exhibited stability"},
      {"measurement": "stability in vitro in rat hepatocyte incubation assay", "setting": "[3]", "value": "exhibited stability"},
      {"measurement": "selectivity against a panel of other serine proteases", "setting": "[4]", "value": "high degree of selectivity"},
      {"measurement": "safety margin above the presumptive efficacious dose (3 mg/kg)", "setting": "[6]; 30 mg/kg BID for seven days vs 3 mg/kg", "value": "≥ 10", "unit": "fold"},
      {"measurement": "mortality, change in weight, abnormalities in clinical chemistries", "setting": "[6]; 30 mg/kg orally BID for 7 days", "value": "no mortality, change in weight, or abnormalities in clinical chemistries were observed"},
      {"measurement": "toxicity", "setting": "[6]; dosed for seven days at 30 mg/kg BID", "value": "did not display toxicity"},
      {"measurement": "inhibition of hERG channel activity", "setting": "hERG channel", "value": "no significant inhibition"},
      {"measurement": "heart levels relative to liver concentrations in the same animals", "setting": "[7]", "value": "up to two orders of magnitude lower"},
      {"measurement": "plasma levels relative to liver concentrations in the same animals", "setting": "[7]", "value": "up to two orders of magnitude lower"},
      {"measurement": "inhibition of Cytochrome P450 isoforms", "setting": "Cytochrome P450 isoforms", "value": "no significant inhibition"},
      {"measurement": "EC50", "setting": "[5]", "value": "~2", "unit": "nM"}
    ]},
    {"smiles": "CC(C)(C)OC(=O)N[C@H]1CCCCC/C=C\\[C@@H]2C[C@@]2(C(=O)NS(=O)(=O)C2CC2)NC(=O)[C@@H]2C[C@@H](OC(=O)N3Cc4ccccc4C3)CN2C1=O", "note": "[AR294381]", "values": [
      {"measurement": "stability in vitro in dog hepatocyte incubation assay", "setting": "[1]", "value": "exhibited stability"},
      {"measurement": "stability in vitro in human hepatocyte incubation assay", "setting": "[2]", "value": "exhibited stability"},
      {"measurement": "stability in vitro in rat hepatocyte incubation assay", "setting": "[3]", "value": "exhibited stability"},
      {"measurement": "selectivity against a panel of other serine proteases", "setting": "[4]", "value": "high degree of selectivity"},
      {"measurement": "inhibition of hERG channel activity", "setting": "hERG channel", "value": "no significant inhibition"},
      {"measurement": "inhibition of Cytochrome P450 isoforms", "setting": "Cytochrome P450 isoforms", "value": "no significant inhibition"},
      {"measurement": "EC50", "setting": "[5]", "value": "~2", "unit": "nM"}
    ]},
    {"smiles": "CCOC(=O)[C@@]12C[C@H]1C=CCCCCC[C@H](NC(=O)OC(C)(C)C)C(=O)N1C[C@H](O)C[C@H]1C(=O)N2", "values": [
      {"measurement": "ring closure, isolated yield", "setting": "[8]", "value": 52, "unit": "%"},
      {"measurement": "ring closure, yield of all isomers", "setting": "[9]", "value": 26, "unit": "%"}
    ]},
    {"smiles": "CC(C)(C)OC(=O)N[C@H]1CCCCCCC[C@@H]2C[C@@]2(C(=O)NS(=O)(=O)C2CC2)NC(=O)[C@@H]2C[C@@H](OC(=O)N3Cc4ccccc4C3)CN2C1=O", "note": "[AR333833]", "values": [
      {"measurement": "stability in vitro in dog hepatocyte incubation assay", "setting": "[1]", "value": "exhibited stability"},
      {"measurement": "stability in vitro in human hepatocyte incubation assay", "setting": "[2]", "value": "exhibited stability"},
      {"measurement": "stability in vitro in rat hepatocyte incubation assay", "setting": "[3]", "value": "exhibited stability"},
      {"measurement": "selectivity against a panel of other serine proteases", "setting": "[4]", "value": "high degree of selectivity"},
      {"measurement": "inhibition of hERG channel activity", "setting": "hERG channel", "value": "no significant inhibition"},
      {"measurement": "inhibition of Cytochrome P450 isoforms", "setting": "Cytochrome P450 isoforms", "value": "no significant inhibition"},
      {"measurement": "EC50", "setting": "[5]", "value": "~2", "unit": "nM"}
    ]},
    {"smiles": "CC(C)(C)OC(=O)N[C@H]1CCCCC/C=C\\[C@@H]2C[C@@]2(C(=O)NS(=O)(=O)Nc2ccc(C#N)cc2)NC(=O)[C@@H]2C[C@@H](OC(=O)N3Cc4ccccc4C3)CN2C1=O", "note": "[Compound 131, (1S,4R,6S,14S,18R)-1,3-Dihydro-isoindole-2-carboxylic acid 14-tert-butoxycarbonylamino-4-(4-cyanophenylaminosulfonyl-aminocarbonyl)-2,15-dioxo-3,16-diaza-tricyclo[14.3.0.0^4,6]nonadec-7-en-18-yl ester]", "values": [
      {"measurement": "IC50", "setting": "NS3-NS4 protease", "value": "< 100", "unit": "nM"},
      {"measurement": "EC50", "setting": "[10]", "value": "< 100", "unit": "nM"}
    ]},
    {"smiles": "CC(C)(C)OC(=O)N[C@H]1CCCCC/C=C\\[C@@H]2C[C@@]2(C(=O)NS(=O)(=O)NC2CCCC2)NC(=O)[C@@H]2C[C@@H](OC(=O)N3Cc4ccccc4C3)CN2C1=O", "note": "[Compound 134, (1S,4R,6S,14S,18R)-1,3-Dihydro-isoindole-2-carboxylic acid 14-tert-butoxycarbonylamino-4-(cyclopentylaminosulfonyl-aminocarbonyl)-2,15-dioxo-3,16-diaza-tricyclo[14.3.0.0^4,6]nonadec-7-en-18-yl ester]", "values": [
      {"measurement": "IC50", "setting": "NS3-NS4 protease", "value": "< 100", "unit": "nM"},
      {"measurement": "EC50", "setting": "[10]", "value": "< 100", "unit": "nM"}
    ]},
    {"smiles": "CC(C)(C)OC(=O)N[C@H]1CCCCC/C=C\\[C@@H]2C[C@@]2(C(=O)NS(=O)(=O)Nc2ccc(C(F)(F)F)cc2)NC(=O)[C@@H]2C[C@@H](OC(=O)N3Cc4ccccc4C3)CN2C1=O", "note": "[Compound 132, (1S,4R,6S,14S,18R)-1,3-Dihydro-isoindole-2-carboxylic acid 14-tert-butoxycarbonylamino-4-(4-trifluoromethylphenylaminosulfonyl-aminocarbonyl)-2,15-dioxo-3,16-diaza-tricyclo[14.3.0.0^4,6]nonadec-7-en-18-yl ester]", "values": [
      {"measurement": "IC50", "setting": "NS3-NS4 protease", "value": "< 100", "unit": "nM"},
      {"measurement": "EC50", "setting": "[10]", "value": "< 100", "unit": "nM"}
    ]},
    {"smiles": "CC(C)(C)OC(=O)N[C@H]1CCCCC/C=C\\[C@@H]2C[C@@]2(C(=O)NS(=O)(=O)N2CCC2)NC(=O)[C@@H]2C[C@@H](OC(=O)N3Cc4ccccc4C3)CN2C1=O", "note": "[Compound 117, (1S,4R,6S,14S,18R)-1,3-Dihydro-isoindole-2-carboxylic acid 14-tert-butoxycarbonylamino-4-(azetidino-sulfonyl-aminocarbonyl)-2,15-dioxo-3,16-diaza-tricyclo[14.3.0.0^4,6]nonadec-7-en-18-yl ester]", "values": [
      {"measurement": "IC50", "setting": "NS3-NS4 protease", "value": "< 100", "unit": "nM"},
      {"measurement": "EC50", "setting": "[10]", "value": "< 100", "unit": "nM"}
    ]}
  ]
}
